Reference: patent US7125671B2, “Nucleic acid amplification with terminal-phosphate labeled nucleotides” (GE Healthcare Bio-Sciences Corp., priority 2003, dated 2006)

Columns and labels:
[1] = Non-enzymatic hydrolysis of dT4P-DDAO in the presence of MnCl2, effect of ammonium sulfate and related salts (FIG. 4); format: physicochemical; settings: 10 mM salt; 0.5 mM MnCl2; 25 mM Tris.HCl pH 9.0; 95° C. for 60 minutes
Method: Four μl of each reaction mix was mixed with 16 μl of BAP solution in Hepes (0.005 units BAP/μl) and incubated at 37° C. for 60 minutes. Samples were read on Tecan ultra plate reader. Un heated sample and unheated sample without MnCl2 were used as controls. Raw fluorescence counts were converted into % degradation by using fluorescence counts from a Snake Venom phosphodiesterase hydrolyzed sample as 100% degraded sample.

[2] = Non-enzymatic hydrolysis of dT4P-DDAO in the presence of MnCl2, effect of other salts (FIG. 5); settings: 10 or 25 mM salt; 0.5 mM MnCl2; 25 mM Hepes pH 8.1; 95° C. for 60 minutes
Method: Twenty μl of 25 mM Hepes, pH 8.1, containing 0.5 mM MnCl2, 1 μm dT4P-DDAO and 10 or 25 mM inorganic or organic salt (see FIG. 5) was heated at 95° C. for 60 minutes. 4 μl of each sample was treated with BAP as described above and read on Tecan ultra plate reader. An unheated sample with MnCl2 (water lane) and a heated sample without Hepes and MnCl2 were used as controls. Fluorescence counts were converted into % degradation as described above.

T. ba polymerase = assay: PCR amplification with terminal-phosphate labeled nucleoside polyphosphates in the presence of stabilizing additives (FIG. 6); format: biochemical, Thermococcus barosii; settings: dT4P-Me, dC4P-Me, 0.25 mM MnCl2, M13 DNA, 35 cycles
Method: Polymerase chain reaction (PCR) mixtures (20 μl) contained 25 mM Hepes (pH 8.1), 10 mM KCl, 2 mM MgSO4, 0.25 mM MnCl2, 1 mg/ml bovine serum albumin, 0.01% (v/v) Tween-20 and 10–25 mM salt as shown in FIG. 6. Each sample also contained 20 μm each of dA4P-Me, dT4P-Me, dC4P-Me, 200 μm dG4P-FlEt, 0.006 units/μl BAP, 2 units of T. ba polymerase, 0.1 μm −40 M13 forward primer, 0.1 μm −28 M13 reverse primer and 0.2 ng M13 DNA. In addition to the terminal-phosphate labeled nucleotide, terminal methyl-blocked dNTP's were used instead of normal dNTP's to prevent degradation by BAP (phosphatase). Latter is required for signal generation from dye-polyphosphate after the nucleotide is incorporated into DNA by polymerase. Reactions were carried out for 35 thermal cycles of 90° C., 30 sec.; 55° C., 30 sec.; and 65° C., 300 sec. Reaction products were loaded onto 1.6% agarose gels. The gels were stained with SYBR Gold (Molecular Probes) according to the manufacturers' instructions and scanned at 532 nm using a Typhoon fluorescence scanner (Amersham Biosciences). Gel size markers were a 100 bp ladder (Amersham Biosciences).

[3] = target: pfu (with A486Y mutation) polymerase (Pyrococcus furiosus, UniProt P61875, A486Y); assay: Quantitative PCR with terminal-phosphate labeled nucleoside polyphosphates on ABI 7900; format: biochemical; settings: 200 μm dG4P-FlEt with dA4P-Me, dT4P-Me, dC4P-Me; BAP; 50 cycles; FIG. 7
Sequence of pfu (with A486Y mutation) polymerase (P61875 whole entry A486Y): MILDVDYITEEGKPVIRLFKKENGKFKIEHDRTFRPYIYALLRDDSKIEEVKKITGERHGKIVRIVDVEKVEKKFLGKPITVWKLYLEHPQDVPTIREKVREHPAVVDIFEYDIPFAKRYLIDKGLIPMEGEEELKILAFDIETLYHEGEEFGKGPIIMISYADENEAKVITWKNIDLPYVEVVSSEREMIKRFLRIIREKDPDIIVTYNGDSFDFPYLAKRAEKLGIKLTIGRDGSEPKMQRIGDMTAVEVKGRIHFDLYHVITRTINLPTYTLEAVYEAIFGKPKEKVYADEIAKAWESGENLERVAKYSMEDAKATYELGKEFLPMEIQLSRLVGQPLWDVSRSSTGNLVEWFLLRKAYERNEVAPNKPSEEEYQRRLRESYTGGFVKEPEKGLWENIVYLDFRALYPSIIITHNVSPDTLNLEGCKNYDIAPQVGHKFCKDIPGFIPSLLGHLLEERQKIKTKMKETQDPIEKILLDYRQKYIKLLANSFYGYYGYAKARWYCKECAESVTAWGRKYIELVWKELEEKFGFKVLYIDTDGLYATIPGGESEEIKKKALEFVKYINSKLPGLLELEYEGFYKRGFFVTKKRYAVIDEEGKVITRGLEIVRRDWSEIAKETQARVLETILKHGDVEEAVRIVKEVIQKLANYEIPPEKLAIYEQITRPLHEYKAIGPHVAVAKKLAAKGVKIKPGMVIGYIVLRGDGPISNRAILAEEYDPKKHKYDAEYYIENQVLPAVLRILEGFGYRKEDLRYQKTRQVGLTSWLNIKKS
Method: Polymerase chain reaction (PCR) mixtures (20 μl) contained 25 mM Tris.HCl (pH 9.0), 10 mM KCl, 2 mM MgSO4, 0.25 mM MnCl2, 1 mg/ml bovine serum albumin and 0.01% (v/v) Tween-20. Each sample also contained 20 μm each of dA4P-Me, dT4P-Me, dC4P-Me, 200 μm dG4P-FlEt, 0.005 units/μl BAP, 2 units of pfu (with A486Y mutation) polymerase, 0.1 μm −40 M13 forward primer, 0.1 μM −28 M13 reverse primer and 1.2×10^6–1.2×10^9 copies of M13 DNA. In addition to the terminal-phosphate labeled nucleotide, the remaining nucleotides were blocked with a methyl group on the terminal phosphate to prevent degradation by BAP. Reactions were carried out for 50 thermal cycles of 90° C., 30 sec.; 55° C., 30 sec.; and 65° C., 300 sec on ABI 7900 instrument.
Reaction products were also loaded onto 1.6% agarose gels. The gels were stained with SYBR Gold (Molecular Probes) according to the manufacturers' instructions and scanned at 532 nm using a Typhoon fluorescence scanner (Amersham Biosciences) to show the formation of PCR product (FIG. 8). Gel size markers were a 100 bp ladder (Amersham Biosciences).

Compound | stabilization of dT4P-DDAO (% degradation) [1] | stabilization of dT4P-DDAO (% degradation) [2] | PCR product formation in the presence of the additive (T. ba polymerase; 10–25 mM salt, dA4P-Me, dG4P-FlEt) | cycle count at fluorescence threshold plotted against input M13 DNA copies [3] | PCR product formation (T. ba polymerase; absence of any stabilizer, with dA4P-Me)
N.N.O=S(=O)(O)O [ammonium sulfate] | clearly stabilizes | stabilize the nucleotide | PCR product was separated |  | 
CCOc1ccc2c(c1)Oc1cc(OP(=O)(O)OP(=O)(O)OP(=O)(O)OP(=O)(O)OC[C@H]3O[C@@H](n4cnc5c(=O)[nH]c(N)nc54)C[C@@H]3O)ccc1C21OC(=O)c2ccccc21 (some centres unmarked) [dG4P-FlEt, 2′-Deoxyguanosine-5′-(δ-3′-(6′-ethoxyfluorescein)) tetraphosphate] |  |  |  | straight line | PCR product was separated
